The nature of data set [1]: High-throughput equilibrium solubility at pH 6.8. Format: physicochemical. Conditions: pH 6.8, aqueous buffer, thermodynamic from solid; read-out: HT-Eq Sol/pH 6.8. The method, boiled down:
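Following the procedure of Zhou et al. (2007), compound solubility was determined at pH 6.8.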

Data set [2] in a line: Parallel Artificial Membrane Permeability Assay (PAMPA) at pH 6.8. It is filed as physicochemical. The method, boiled down:
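Reported as log Pe, membrane permeability was determined by parallel artificial membrane assay at pH 6.8 per Wohnsland–Faller.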

For data set [3], the target named is T1, PI3K alfa (Homo sapiens, UniProt P42336).
T1 construct: His tag (C); made in house; host or cells: baculovirus BV1075; Tn5 (Trichoplusia ni) or TiniPro insect cells
T1 sequence (P42336 with tags, fused parts or gaps limits assumed): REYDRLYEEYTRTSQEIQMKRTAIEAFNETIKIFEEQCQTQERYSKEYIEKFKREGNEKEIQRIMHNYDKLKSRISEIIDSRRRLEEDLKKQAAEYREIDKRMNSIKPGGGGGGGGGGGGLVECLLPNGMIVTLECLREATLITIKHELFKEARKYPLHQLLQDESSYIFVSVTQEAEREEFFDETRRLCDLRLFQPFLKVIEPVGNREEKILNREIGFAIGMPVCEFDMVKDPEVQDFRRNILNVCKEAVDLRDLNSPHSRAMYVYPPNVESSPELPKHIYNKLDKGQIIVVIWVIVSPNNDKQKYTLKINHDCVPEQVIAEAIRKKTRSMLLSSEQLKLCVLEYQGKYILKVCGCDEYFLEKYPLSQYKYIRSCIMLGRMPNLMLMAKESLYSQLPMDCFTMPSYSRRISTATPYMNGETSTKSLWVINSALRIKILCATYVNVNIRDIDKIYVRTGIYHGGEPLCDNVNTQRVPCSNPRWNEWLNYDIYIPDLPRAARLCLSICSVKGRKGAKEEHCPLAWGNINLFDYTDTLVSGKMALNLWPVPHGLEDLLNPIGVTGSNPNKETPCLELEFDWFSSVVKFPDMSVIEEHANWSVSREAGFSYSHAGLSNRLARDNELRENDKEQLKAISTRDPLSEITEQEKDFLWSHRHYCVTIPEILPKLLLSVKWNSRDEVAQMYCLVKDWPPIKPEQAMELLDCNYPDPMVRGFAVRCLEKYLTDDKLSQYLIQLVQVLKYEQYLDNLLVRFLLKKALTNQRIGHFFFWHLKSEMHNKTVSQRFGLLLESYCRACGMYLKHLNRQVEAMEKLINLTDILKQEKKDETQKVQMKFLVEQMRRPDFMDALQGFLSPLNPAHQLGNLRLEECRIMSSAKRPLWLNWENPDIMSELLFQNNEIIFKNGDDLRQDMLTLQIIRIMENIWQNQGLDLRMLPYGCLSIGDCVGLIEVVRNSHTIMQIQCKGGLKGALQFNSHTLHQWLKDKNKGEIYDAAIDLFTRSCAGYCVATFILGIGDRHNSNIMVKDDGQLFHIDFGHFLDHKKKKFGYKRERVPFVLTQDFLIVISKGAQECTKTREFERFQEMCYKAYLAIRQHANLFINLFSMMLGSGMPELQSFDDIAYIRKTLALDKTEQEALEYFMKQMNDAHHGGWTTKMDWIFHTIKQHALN
Kind of data set: PI3K alpha kinase assay (Kinase-Glo luminescence). Conditions: read-out: EPK_PI3Kalfa/IC50. It is filed as biochemical. The method, boiled down:
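IC50 values come from a four-parameter logistic fit of percent inhibition at eight concentrations, typically 10 to 0.003 μM. Recombinant PI3Kα at 10 nM turned over 1 μM ATP with 10 μg/mL PI for 60 min at room temperature, and residual ATP was measured by Kinase-Glo.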

The target of data set [4] is T2, PI3K delta (Homo sapiens, UniProt O00329).
T2 construct: for the full-length p110-d subunit are generated and fused by overlapping PCR; His tag (C); made in house; host or cells: baculovirus BV1060; Tn5 (Trichoplusia ni) or TiniPro insect cells
T2 sequence (O00329 with tags, fused parts or gaps limits assumed): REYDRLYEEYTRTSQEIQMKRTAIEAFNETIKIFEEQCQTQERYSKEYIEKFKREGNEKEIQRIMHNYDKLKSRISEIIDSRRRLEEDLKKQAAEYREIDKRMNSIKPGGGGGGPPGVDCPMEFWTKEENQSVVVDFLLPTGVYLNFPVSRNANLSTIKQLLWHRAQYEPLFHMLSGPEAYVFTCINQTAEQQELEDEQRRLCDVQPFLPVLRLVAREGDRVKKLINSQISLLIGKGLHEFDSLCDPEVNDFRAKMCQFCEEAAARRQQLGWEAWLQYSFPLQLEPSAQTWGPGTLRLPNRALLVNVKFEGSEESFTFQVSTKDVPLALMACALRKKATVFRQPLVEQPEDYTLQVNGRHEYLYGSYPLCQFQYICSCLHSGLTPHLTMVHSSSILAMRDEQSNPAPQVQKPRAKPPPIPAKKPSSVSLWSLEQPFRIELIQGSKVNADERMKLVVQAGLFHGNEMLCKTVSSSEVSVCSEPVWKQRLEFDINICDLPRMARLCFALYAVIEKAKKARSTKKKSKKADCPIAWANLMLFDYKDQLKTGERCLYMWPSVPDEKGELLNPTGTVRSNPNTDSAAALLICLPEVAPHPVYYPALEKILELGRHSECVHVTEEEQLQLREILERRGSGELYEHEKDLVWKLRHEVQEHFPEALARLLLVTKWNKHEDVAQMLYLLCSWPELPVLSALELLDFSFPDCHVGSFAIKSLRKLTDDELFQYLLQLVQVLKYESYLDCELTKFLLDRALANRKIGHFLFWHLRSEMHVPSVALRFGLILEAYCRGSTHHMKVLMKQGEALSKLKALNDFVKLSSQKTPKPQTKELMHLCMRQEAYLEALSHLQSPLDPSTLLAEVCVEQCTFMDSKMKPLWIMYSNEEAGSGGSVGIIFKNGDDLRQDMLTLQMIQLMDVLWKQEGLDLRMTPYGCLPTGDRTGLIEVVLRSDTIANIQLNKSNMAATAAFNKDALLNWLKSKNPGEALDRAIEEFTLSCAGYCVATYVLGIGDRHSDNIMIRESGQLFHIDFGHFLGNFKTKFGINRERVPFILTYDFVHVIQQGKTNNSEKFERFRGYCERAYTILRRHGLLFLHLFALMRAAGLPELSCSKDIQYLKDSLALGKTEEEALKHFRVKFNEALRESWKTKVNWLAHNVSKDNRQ
The data set is described as follows: PI3K delta kinase assay (Kinase-Glo luminescence). Format: biochemical. The conditions noted are these: read-out: EPK_PI3Kdelta/IC50. The method, boiled down: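 IC50s derive from 8-point inhibition curves fitted to a 4-parameter logistic model. Reaction: 10 nM purified p110δ/p85 iSH2 fusion, 1 μM ATP, 10 μg/mL PI substrate, pH 7.5 Tris buffer with MgCl2, NaCl, CHAPS and DTT, run 60 min at room temperature; remaining ATP read by Kinase-Glo luminescence.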

Values after ≈ are worked out from the molar mass of the structure shown.

Take `CNc1ncc(-c2ccc3ncc4c(c3c2)n(-c2ccc(N3CCC(O)C3)nc2C)c(=O)n4C)cn1` (centres unmarked) [Example 27.2, 1-[6-(3-Hydroxy-pyrrolidin-1-yl)-2-methyl-pyridin-3-yl]-3-methyl-8-(2-methylamino-pyrimidin-5-yl)-1,3-dihydro-imidazo[4,5-c]quinolin-2-one]: the solubility thermodynamic in data set [1] stood at 67 µg/mL (≈ 139 µM). Besides, the “HT-Perm logPe pH6.8” value in data set [2] was −5.1. The IC50 was determined as 32 nM in data set [3] and 55 nM in data set [4].
In the case of `COC1CCN(c2ccc(-n3c(=O)n(C)c4cnc5ccc(-c6cncc(C(C)(C)O)c6)cc5c43)c(C)n2)C1` (centres unmarked) [Example 28.1, 8-[5-(1-Hydroxy-1-methyl-ethyl)-pyridin-3-yl]-1-[6-(3-methoxy-pyrrolidin-1-yl)-2-methyl-pyridin-3-yl]-3-methyl-1,3-dihydro-imidazo[4,5-c]quinolin-2-one], the solubility thermodynamic in data set [1] was determined as 427 µg/mL (≈ 814 µM). Also, in data set [2], the “HT-Perm logPe pH6.8” value is on record as −5.1. For the same compound, the IC50 in data set [3] stood at 18 nM; in data set [4] it was 59 nM.
On the same counts, the results for `CCNc1cc(-c2ccc3ncc4c(c3c2)n(-c2ccc(N3CC(O)C3)nc2C)c(=O)n4C)cnc1CO` [Example 29.2, 8-(5-Ethylamino-6-hydroxymethyl-pyridin-3-yl)-1-[6-(3-hydroxy-azetidin-1-yl)-2-methyl-pyridin-3-yl]-3-methyl-1,3-dihydro-imidazo[4,5-c]quinolin-2-one] are 57 µg/mL (≈ 111 µM), −7.1, 9 nM and 19 nM.
For the compound `CNc1ncc(-c2ccc3ncc4c(c3c2)n(-c2ccc(N3CC(O)C3)nc2C)c(=O)n4C)cc1F` [Example 29.3, 8-(5-Fluoro-6-methylamino-pyridin-3-yl)-1-[6-(3-hydroxy-azetidin-1-yl)-2-methyl-pyridin-3-yl]-3-methyl-1,3-dihydro-imidazo[4,5-c]quinolin-2-one], the solubility thermodynamic in data set [1] was 56 µg/mL (≈ 115 µM). Also, the “HT-Perm logPe pH6.8” value in data set [2] is listed as −5.1. For the same compound, the IC50 in data set [3] was found to be 40 nM; in data set [4], 23 nM.
The corresponding values for `CNc1ncc(-c2ccc3ncc4c(c3c2)n(-c2ccc(N3CC(O)C3)nc2C)c(=O)n4C)cc1C(F)(F)F` [Example 29.4, 1-[6-(3-Hydroxy-azetidin-1-yl)-2-methyl-pyridin-3-yl]-3-methyl-8-(6-methylamino-5-trifluoromethyl-pyridin-3-yl)-1,3-dihydro-imidazo[4,5-c]quinolin-2-one] are 44 µg/mL (≈ 82.2 µM), −5, 17 nM and 13 nM.
As for `COc1cc(-c2ccc3ncc4c(c3c2)n(-c2ccc(N3CC(O)C3)nc2C)c(=O)n4C)cnc1CO` [Example 29.5, 1-[6-(3-Hydroxy-azetidin-1-yl)-2-methyl-pyridin-3-yl]-8-(6-hydroxymethyl-5-methoxy-pyridin-3-yl)-3-methyl-1,3-dihydro-imidazo[4,5-c]quinolin-2-one], the solubility thermodynamic in data set [1] turned out to be 256 µg/mL (≈ 513 µM). Further, the “HT-Perm logPe pH6.8” value in data set [2] is −7.8. Also, the IC50 stood at 31 nM in data set [3] and 50 nM in data set [4].
On to `CNc1ncc(-c2ccc3ncc4c(c3c2)n(-c2ccc(C(C)(C)O)nc2C)c(=O)n4C)cc1F` [Example 31.1, 8-(5-Fluoro-6-methylamino-pyridin-3-yl)-1-[6-(1-hydroxy-1-methyl-ethyl)-2-methyl-pyridin-3-yl]-3-methyl-1,3-dihydro-imidazo[4,5-c]quinolin-2-one], for which the solubility thermodynamic in data set [1] is 3 µg/mL (≈ 6.35 µM). Also, in data set [2], the “HT-Perm logPe pH6.8” value is given as −4.1. For the same compound, the figures for the IC50 in data set [3] and in data set [4] were 23 nM and 3 nM, respectively.
As for `CCOc1ccc(-c2ccc3ncc4c(c3c2)n(-c2ccc(C(C)(C)O)nc2C)c(=O)n4C)cn1` [Example 31.4, 8-(6-Ethoxy-pyridin-3-yl)-1-[6-(1-hydroxy-1-methyl-ethyl)-2-methyl-pyridin-3-yl]-3-methyl-1,3-dihydro-imidazo[4,5-c]quinolin-2-one], in data set [1], the solubility thermodynamic is 5 µg/mL (≈ 10.6 µM). The “HT-Perm logPe pH6.8” value in data set [2] is given as −3.7. The IC50 in data set [3] came out at 84 nM; in data set [4], 36 nM.
Consider `Cc1nc(C(C)(C)O)ccc1-n1c(=O)n(C)c2cnc3ccc(-c4cnc(N)c(C(F)(F)F)c4)cc3c21` [Example 31.5, 8-(6-Amino-5-trifluoromethyl-pyridin-3-yl)-1-[6-(1-hydroxy-1-methyl-ethyl)-2-methyl-pyridin-3-yl]-3-methyl-1,3-dihydro-imidazo[4,5-c]quinolin-2-one], for which the solubility thermodynamic in data set [1] was found to be 3 µg/mL (≈ 5.9 µM). In addition, in data set [2], the “HT-Perm logPe pH6.8” value is reported as −4.3. Further, the figures for the IC50 in data set [3] and in data set [4] were 6 nM and under 3 nM, respectively.
On to `Cc1nc(C(C)(C)O)ccc1-n1c(=O)n(C)c2cnc3ccc(-c4cncc(C(C)(C)C#N)c4)cc3c21` [Example 31.6, 2-(5-{1-[6-(1-Hydroxy-1-methyl-ethyl)-2-methyl-pyridin-3-yl]-3-methyl-2-oxo-2,3-dihydro-1H-imidazo[4,5-c]quinolin-8-yl}-pyridin-3-yl)-2-methyl-propionitrile], for which the solubility thermodynamic in data set [1] came out at 3 µg/mL (≈ 6.09 µM). Further, the “HT-Perm logPe pH6.8” value in data set [2] is recorded as −4.4. In addition, the figures for the IC50 in data set [3] and in data set [4] were 2 nM and 7 nM, respectively.
Turning to `CCNc1ncc(-c2ccc3ncc4c(c3c2)n(-c2ccc(C(C)(C)O)nc2C)c(=O)n4C)cn1` [Example 31.7, 8-(2-Ethylamino-pyrimidin-5-yl)-1-[6-(1-hydroxy-1-methyl-ethyl)-2-methyl-pyridin-3-yl]-3-methyl-1,3-dihydro-imidazo[4,5-c]quinolin-2-one], the solubility thermodynamic in data set [1] is 14 µg/mL (≈ 29.8 µM). Further, the “HT-Perm logPe pH6.8” value in data set [2] is −4.6. The values for the IC50 in data set [3] and in data set [4] were 75 nM and 27 nM, respectively.
As for `Cc1nc(C(C)(C)O)ccc1-n1c(=O)n(C)c2cnc3ccc(-c4cncc(C5(C#N)CCC5)c4)cc3c21` [Example 31.8, 1-(5-{1-[6-(1-Hydroxy-1-methyl-ethyl)-2-methyl-pyridin-3-yl]-3-methyl-2-oxo-2,3-dihydro-1H-imidazo[4,5-c]quinolin-8-yl}-pyridin-3-yl)-cyclobutanecarbonitrile], in data set [1], the solubility thermodynamic turned out to be 111 µg/mL (≈ 220 µM). Also, the “HT-Perm logPe pH6.8” value in data set [2] is −4.3. Moreover, the IC50 in data set [3] was 31 nM; in data set [4], 7 nM.
With `CNc1ncc(-c2ccc3ncc4c(c3c2)n(-c2ccc(N3CC[C@H](O)C3)nc2C)c(=O)n4C)cn1` [Example 32.1, 1-[6-((S)-3-Hydroxy-pyrrolidin-1-yl)-2-methyl-pyridin-3-yl]-3-methyl-8-(2-methylamino-pyrimidin-5-yl)-1,3-dihydro-imidazo[4,5-c]quinolin-2-one], in data set [1], the solubility thermodynamic is 64 µg/mL (≈ 133 µM). The “HT-Perm logPe pH6.8” value in data set [2] is listed as −5. Also, the results for the IC50 in data set [3] and in data set [4] were 17 nM and 9 nM, respectively.
In the case of `CNc1ncc(-c2ccc3ncc4c(c3c2)n(-c2ccc(N3CC[C@H](O)C3)nc2C)c(=O)n4C)cc1F` [Example 32.2, 8-(5-Fluoro-6-methylamino-pyridin-3-yl)-1-[6-((S)-3-hydroxy-pyrrolidin-1-yl)-2-methyl-pyridin-3-yl]-3-methyl-1,3-dihydro-imidazo[4,5-c]quinolin-2-one], the solubility thermodynamic in data set [1] stood at 7 µg/mL (≈ 14 µM). The “HT-Perm logPe pH6.8” value in data set [2] is recorded as −4.8. In addition, the IC50 in data set [3] came to 44 nM; in data set [4], 36 nM.

The values above are taken from patent US20100311714A1, “1H-IMIDAZO[4,5-c]QUINOLINONE COMPOUNDS” (priority 2009, published 2010).
